Read-outs that look alike come from different tables or passages of the source. Blank lines part the entries; values can stand above or below the molecule they belong to.
Experiments:
Experiment in all cases: biochemical
ABL1-phosphorylated = ABL1-phosphorylated (Homo sapiens, UniProt P00519)
GCN2(Kin.Dom.2,S808G) = GCN2(Kin.Dom.2,S808G) (Homo sapiens, UniProt Q9P2K8, S808G)
[1] = biological target: JAK1(JH2domain-pseudokinase) (Homo sapiens, UniProt P23458)
NEK4 = NEK4 (Homo sapiens, UniProt P51957)
NLK = NLK (Homo sapiens, UniProt Q9UBE8)
PAK4 = PAK4 (Homo sapiens, UniProt O96013)
PHKG1 = PHKG1 (Homo sapiens, UniProt Q16816)
PIK3CA(C420R) = PIK3CA(C420R) (Homo sapiens, UniProt P42336, C420R)
PIK3CA(E542K) = PIK3CA(E542K) (Homo sapiens, UniProt P42336, E542K)
PIK3CA(E545K) = PIK3CA(E545K) (Homo sapiens, UniProt P42336, E545K)
PIK3CA(H1047L) = PIK3CA(H1047L) (Homo sapiens, UniProt P42336, H1047L)
PRKCI = PRKCI (Homo sapiens, UniProt P41743)
RET = RET (Homo sapiens, UniProt P07949)
RET(M918T) = RET(M918T) (Homo sapiens, UniProt P07949, M918T)
RIOK1 = RIOK1 (Homo sapiens, UniProt Q9BRS2)
RIPK5 = RIPK5 (Homo sapiens, UniProt Q6XUX3)
ROCK2 = ROCK2 (Homo sapiens, UniProt O75116)
RSK2 = RSK2 (Homo sapiens, UniProt P51812)
S6K1 = S6K1 (Homo sapiens, UniProt P23443)
SIK = SIK (Homo sapiens, UniProt P57059)
STK16 = STK16 (Homo sapiens, UniProt O75716)
SgK110 = SgK110 (Homo sapiens, UniProt P0C264)
TIE2 = TIE2 (Homo sapiens, UniProt Q02763)
TSSK1B = TSSK1B (Homo sapiens, UniProt Q9BXA7)
ULK3 = ULK3 (Homo sapiens, UniProt Q6PHR2)
WEE1 = WEE1 (Homo sapiens, UniProt P30291)
YSK4 = YSK4 (Homo sapiens, UniProt Q56UN5)
LTK = LTK (Homo sapiens, UniProt P29376)
[2] = read-out: CPT-1-70-1 (1uM) % control
[3] = read-out: CPT-1-70-1 (1μM) % control
[4] = read-out: HYJ-2-002-1 (1uM) % control
[5] = read-out: HYJ-2-002-1 (1μM) % control

RSK2, sequence (P51812 whole entry): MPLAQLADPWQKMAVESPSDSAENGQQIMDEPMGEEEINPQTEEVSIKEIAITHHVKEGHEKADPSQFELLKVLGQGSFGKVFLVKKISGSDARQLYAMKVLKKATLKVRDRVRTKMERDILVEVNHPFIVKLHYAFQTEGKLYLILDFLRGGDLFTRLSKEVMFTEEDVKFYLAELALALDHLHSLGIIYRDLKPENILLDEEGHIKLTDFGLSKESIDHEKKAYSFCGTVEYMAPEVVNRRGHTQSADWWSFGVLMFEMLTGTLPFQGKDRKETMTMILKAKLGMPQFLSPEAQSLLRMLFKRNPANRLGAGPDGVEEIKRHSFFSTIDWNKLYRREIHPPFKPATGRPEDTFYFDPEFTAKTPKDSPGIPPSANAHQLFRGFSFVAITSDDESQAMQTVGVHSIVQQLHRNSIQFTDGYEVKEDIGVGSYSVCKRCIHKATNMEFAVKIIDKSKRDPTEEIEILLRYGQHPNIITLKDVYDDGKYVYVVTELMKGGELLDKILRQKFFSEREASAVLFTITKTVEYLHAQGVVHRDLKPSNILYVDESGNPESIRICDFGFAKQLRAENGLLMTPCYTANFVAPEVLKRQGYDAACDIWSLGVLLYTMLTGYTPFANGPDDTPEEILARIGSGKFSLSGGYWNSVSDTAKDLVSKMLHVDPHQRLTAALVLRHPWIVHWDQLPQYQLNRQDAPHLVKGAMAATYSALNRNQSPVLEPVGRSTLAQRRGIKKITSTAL
S6K1, sequence (P23443 whole entry): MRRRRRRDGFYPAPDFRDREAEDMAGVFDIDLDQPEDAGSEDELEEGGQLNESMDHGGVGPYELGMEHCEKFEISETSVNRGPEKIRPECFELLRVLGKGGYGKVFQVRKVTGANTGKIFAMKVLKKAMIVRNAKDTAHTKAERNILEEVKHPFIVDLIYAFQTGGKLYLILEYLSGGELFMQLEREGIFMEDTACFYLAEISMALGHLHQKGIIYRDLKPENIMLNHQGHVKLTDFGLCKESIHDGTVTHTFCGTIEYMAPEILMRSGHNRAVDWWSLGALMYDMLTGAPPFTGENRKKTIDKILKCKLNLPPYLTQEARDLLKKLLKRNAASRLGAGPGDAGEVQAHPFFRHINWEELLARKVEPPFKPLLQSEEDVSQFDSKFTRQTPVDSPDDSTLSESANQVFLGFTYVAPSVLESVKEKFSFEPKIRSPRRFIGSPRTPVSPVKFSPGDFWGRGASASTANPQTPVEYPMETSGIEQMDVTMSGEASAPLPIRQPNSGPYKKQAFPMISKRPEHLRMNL
TSSK1B, sequence (Q9BXA7 whole entry): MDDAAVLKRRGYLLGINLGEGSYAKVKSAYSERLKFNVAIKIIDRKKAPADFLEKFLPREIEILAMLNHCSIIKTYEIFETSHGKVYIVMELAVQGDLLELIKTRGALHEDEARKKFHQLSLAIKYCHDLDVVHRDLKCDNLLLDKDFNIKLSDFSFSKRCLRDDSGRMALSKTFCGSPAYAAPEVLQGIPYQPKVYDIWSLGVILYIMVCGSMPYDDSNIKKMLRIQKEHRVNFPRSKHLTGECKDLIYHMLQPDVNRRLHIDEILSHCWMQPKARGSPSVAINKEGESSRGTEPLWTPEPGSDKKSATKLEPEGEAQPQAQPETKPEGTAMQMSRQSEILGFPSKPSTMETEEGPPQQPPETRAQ
RIOK1, sequence (Q9BRS2 whole entry): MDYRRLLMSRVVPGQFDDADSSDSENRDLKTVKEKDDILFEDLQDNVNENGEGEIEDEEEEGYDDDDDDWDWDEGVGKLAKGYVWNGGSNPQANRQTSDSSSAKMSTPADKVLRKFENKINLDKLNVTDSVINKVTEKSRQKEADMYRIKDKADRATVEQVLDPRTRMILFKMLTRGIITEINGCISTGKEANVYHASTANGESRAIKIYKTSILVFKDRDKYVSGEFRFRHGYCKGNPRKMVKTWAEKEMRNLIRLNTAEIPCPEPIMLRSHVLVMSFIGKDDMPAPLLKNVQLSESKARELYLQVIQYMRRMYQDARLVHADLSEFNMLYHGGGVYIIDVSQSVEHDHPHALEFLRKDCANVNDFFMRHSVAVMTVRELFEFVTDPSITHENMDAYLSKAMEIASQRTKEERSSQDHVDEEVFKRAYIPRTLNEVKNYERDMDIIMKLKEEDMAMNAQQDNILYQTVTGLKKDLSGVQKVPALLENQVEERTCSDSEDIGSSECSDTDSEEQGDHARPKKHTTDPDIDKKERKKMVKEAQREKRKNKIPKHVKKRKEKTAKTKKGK
LTK, sequence (P29376 whole entry): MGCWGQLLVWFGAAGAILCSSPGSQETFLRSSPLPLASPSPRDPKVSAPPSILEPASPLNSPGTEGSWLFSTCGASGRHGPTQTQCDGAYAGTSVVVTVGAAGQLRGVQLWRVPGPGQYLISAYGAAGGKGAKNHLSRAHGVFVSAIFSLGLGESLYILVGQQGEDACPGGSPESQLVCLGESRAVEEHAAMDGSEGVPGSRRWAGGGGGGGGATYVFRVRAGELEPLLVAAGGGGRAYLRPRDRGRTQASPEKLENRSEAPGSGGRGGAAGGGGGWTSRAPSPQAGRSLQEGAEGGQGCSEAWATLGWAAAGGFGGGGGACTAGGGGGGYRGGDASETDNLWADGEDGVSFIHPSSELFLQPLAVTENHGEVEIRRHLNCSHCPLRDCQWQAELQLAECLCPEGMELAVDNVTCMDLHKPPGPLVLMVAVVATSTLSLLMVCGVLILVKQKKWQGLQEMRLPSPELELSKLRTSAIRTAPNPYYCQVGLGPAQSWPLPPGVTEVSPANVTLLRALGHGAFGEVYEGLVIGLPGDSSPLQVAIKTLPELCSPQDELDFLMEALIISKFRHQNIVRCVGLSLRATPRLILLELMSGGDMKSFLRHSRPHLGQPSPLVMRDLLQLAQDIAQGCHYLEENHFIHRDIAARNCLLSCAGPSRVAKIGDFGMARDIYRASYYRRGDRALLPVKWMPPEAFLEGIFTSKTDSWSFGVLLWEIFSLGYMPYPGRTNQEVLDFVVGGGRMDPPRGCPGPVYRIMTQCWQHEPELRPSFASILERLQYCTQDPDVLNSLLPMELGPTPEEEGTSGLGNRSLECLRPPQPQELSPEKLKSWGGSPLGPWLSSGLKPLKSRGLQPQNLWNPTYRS
RET, sequence (P07949 whole entry): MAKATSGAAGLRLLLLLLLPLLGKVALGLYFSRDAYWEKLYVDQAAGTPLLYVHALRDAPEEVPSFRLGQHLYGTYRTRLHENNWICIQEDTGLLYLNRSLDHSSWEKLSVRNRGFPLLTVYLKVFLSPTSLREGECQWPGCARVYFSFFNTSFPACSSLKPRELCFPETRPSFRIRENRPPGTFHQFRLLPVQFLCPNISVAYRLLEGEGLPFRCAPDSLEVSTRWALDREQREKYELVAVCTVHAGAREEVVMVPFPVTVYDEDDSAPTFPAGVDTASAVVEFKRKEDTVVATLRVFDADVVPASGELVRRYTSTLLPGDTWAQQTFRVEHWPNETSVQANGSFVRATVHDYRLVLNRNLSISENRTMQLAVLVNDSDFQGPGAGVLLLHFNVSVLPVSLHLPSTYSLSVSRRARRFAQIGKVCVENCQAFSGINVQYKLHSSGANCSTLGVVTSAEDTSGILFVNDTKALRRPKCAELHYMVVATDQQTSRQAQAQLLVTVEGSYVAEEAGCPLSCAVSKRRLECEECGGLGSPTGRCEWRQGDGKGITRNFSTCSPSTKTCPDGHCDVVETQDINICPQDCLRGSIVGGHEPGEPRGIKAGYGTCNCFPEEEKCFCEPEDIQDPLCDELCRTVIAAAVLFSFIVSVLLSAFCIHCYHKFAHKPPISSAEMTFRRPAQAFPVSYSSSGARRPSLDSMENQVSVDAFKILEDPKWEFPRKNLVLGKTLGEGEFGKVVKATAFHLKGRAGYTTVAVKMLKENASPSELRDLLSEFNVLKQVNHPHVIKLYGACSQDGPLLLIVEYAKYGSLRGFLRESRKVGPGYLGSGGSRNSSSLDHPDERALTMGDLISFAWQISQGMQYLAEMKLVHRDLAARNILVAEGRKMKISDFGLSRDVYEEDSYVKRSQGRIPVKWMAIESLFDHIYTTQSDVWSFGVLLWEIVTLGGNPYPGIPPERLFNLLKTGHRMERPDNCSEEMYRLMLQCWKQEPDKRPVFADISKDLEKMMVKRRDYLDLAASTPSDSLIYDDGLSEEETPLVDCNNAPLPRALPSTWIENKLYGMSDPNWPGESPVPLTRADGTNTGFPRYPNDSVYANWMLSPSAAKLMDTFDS
PRKCI, sequence (P41743 whole entry): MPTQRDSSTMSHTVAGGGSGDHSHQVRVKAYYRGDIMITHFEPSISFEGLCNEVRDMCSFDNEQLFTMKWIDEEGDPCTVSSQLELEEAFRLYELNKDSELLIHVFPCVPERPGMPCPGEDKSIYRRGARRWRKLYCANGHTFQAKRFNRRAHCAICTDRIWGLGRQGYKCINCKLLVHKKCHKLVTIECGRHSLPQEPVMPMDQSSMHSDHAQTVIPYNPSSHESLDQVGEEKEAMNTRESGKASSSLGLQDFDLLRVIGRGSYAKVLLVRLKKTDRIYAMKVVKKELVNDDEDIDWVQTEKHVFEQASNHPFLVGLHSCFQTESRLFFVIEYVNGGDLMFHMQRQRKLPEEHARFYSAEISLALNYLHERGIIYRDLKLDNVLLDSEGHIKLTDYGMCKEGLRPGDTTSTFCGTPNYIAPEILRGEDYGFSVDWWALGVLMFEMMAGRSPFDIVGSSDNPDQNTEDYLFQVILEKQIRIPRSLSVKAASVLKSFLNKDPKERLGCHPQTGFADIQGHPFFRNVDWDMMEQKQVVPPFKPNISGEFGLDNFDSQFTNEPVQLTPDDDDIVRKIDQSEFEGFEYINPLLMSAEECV
RET(M918T), sequence (P07949 whole entry M918T): as the sequence (P07949 whole entry) above, with M918T counted along it

SMILES: CN1CCN(c2ccc(Nc3nc(Oc4ccc(NC(=O)CCl)cc4)c4cc[nH]c4n3)cc2)CC1 [CPT1-70-1]
remaining activity at 1 µM (ABL1-phosphorylated; [2]): 51% | remaining activity at 1 µM (GCN2(Kin.Dom.2,S808G); [2]): 13% | remaining activity at 1 µM [1, 2]: 0.75% | remaining activity at 1 µM (NEK4; [3]): 100% | remaining activity at 1 µM (NLK; [3]): 100% | remaining activity at 1 µM (PAK4; [3]): 12% | remaining activity at 1 µM (PHKG1; [3]): 100% | remaining activity at 1 µM (PIK3CA(C420R); [3]): 100% | remaining activity at 1 µM (PIK3CA(E542K); [3]): 100% | remaining activity at 1 µM (PIK3CA(E545K); [3]): 84% | remaining activity at 1 µM (PIK3CA(H1047L); [3]): 100% | remaining activity at 1 µM (PRKCI; [3]): 65% | remaining activity at 1 µM (RET; [3]): 25% | remaining activity at 1 µM (RET(M918T); [3]): 13% | remaining activity at 1 µM (RIOK1; [3]): 49% | remaining activity at 1 µM (RIPK5; [3]): 33% | remaining activity at 1 µM (ROCK2; [3]): 26% | remaining activity at 1 µM (RSK2; read-out: CPT-1-70-1 (1μM) % control, Kin.Dom.1-N-terminal): 100% | remaining activity at 1 µM (S6K1; [3]): 100% | remaining activity at 1 µM (SIK; [3]): 100% | remaining activity at 1 µM (STK16; [3]): 0.75% | remaining activity at 1 µM (SgK110; [3]): 100% | remaining activity at 1 µM (TIE2; [3]): 100% | remaining activity at 1 µM (TSSK1B; [3]): 25% | remaining activity at 1 µM (ULK3; [3]): 19% | remaining activity at 1 µM (WEE1; [3]): 88% | remaining activity at 1 µM (YSK4; [3]): 0.45% | remaining activity at 1 µM (LTK; [2]): 100%

remaining activity at 1 µM (ABL1-phosphorylated; [4]): 0.1% | remaining activity at 1 µM (GCN2(Kin.Dom.2,S808G); [4]): 14% | remaining activity at 1 µM [1, 4]: 93% | remaining activity at 1 µM (NEK4; [5]): 57% | remaining activity at 1 µM (NLK; [5]): 28% | remaining activity at 1 µM (PAK4; [5]): 99% | remaining activity at 1 µM (PHKG1; [5]): 100% | remaining activity at 1 µM (PIK3CA(C420R); [5]): 100% | remaining activity at 1 µM (PIK3CA(E542K); [5]): 100% | remaining activity at 1 µM (PIK3CA(E545K); [5]): 100% | remaining activity at 1 µM (PIK3CA(H1047L); [5]): 100% | remaining activity at 1 µM (PRKCI; [5]): 73% | remaining activity at 1 µM (RET; [5]): 0.15% | remaining activity at 1 µM (RET(M918T); [5]): 0.95% | remaining activity at 1 µM (RIOK1; [5]): 100% | remaining activity at 1 µM (RIPK5; [5]): 86% | remaining activity at 1 µM (ROCK2; [5]): 94% | remaining activity at 1 µM (RSK2; read-out: HYJ-2-002-1 (1μM) % control, Kin.Dom.1-N-terminal): 100% | remaining activity at 1 µM (S6K1; [5]): 55% | remaining activity at 1 µM (SIK; [5]): 1.8% | remaining activity at 1 µM (STK16; [5]): 80% | remaining activity at 1 µM (SgK110; [5]): 96% | remaining activity at 1 µM (TIE2; [5]): 0.15% | remaining activity at 1 µM (TSSK1B; [5]): 100% | remaining activity at 1 µM (ULK3; [5]): 53% | remaining activity at 1 µM (WEE1; [5]): 100% | remaining activity at 1 µM (YSK4; [5]): 0.45% | remaining activity at 1 µM (LTK; [4]): 89%
SMILES: CCN1CCN(Cc2ccc(NC(=O)c3ccc(C)c(CCc4cnc5[nH]ccc5c4OC)c3)cc2C(F)(F)F)CC1 [HYJ-2-002-1]

Reference: article doi:10.1101/2020.06.11.145995v1 (biorxiv, 2020)
